system: R. oryzae UCP1295; assay: Screening of the Pandemic Response Box library at 5 µM; type: cell-based, Rhizopus oryzae; details: 48 h, Table S1, mean of the four values
Procedure: Rhizopus oryzae UCP is the most prevalent Mucorales species in human infections and was used as a reference strain to screen the Pandemic Response Box® library. Screening was performed according to Rollin-Pinheiro and colleagues. Each compound was diluted in RPMI 1640 medium (Sigma Chemical Co., St. Louis, MO, USA), supplemented with 2% glucose and buffered with 3-(N-morpholino) propanesulfonic acid (MOPS) (Sigma Chemical Co., St. Louis, MO, USA) (0.165 mol/L, pH 7.2, from here on referred to as ‘supplemented RPMI’) to reach 5 μM in 96-well microtiter plates. Posaconazole (5 μM) and supplemented RPMI containing 1% DMSO were used as controls (both from Sigma Chemical Co., St. Louis, MO, USA). Conidia (2 × 10^5/mL) were added and incubated for 48 h at 37 °C in a 5% CO2 atmosphere. […] An inhibition of at least 60% was defined as the cut-off to select the promising drugs with antifungal activity against the Rhizopus species.

Row | Compound | % of growth inhibition, Mean
1 | Cc1ccc(S(=O)(=O)Nc2cccc3cccnc23)cc1 [MMV233495] | -0.4%
2 | O=C(O)c1cc(-c2ccc(Br)cc2)nc2ccc(Cl)cc12 [MMV247764] | -8.6%
3 | O=S(=O)(Nc1ccc(O)cc1)c1cccc2cccnc12 [MMV251679] | -4.7%
4 | CCN1CCN(Cc2nc3ccc([N+](=O)[O-])cc3c(=O)n2-c2ccccc2F)CC1 [MMV275100] | -8.8%
5 | Oc1ccc2[nH]c(-c3ccccc3)nc2c1 [MMV292173] | -15.4%
6 | COc1ccc(CNC(=O)C(NS(=O)(=O)c2ccc3nc(C)sc3c2)C(C)C)cc1 (centres unmarked) [MMV303733] | -8.6%
7 | COC(=O)Nc1nc2ccccc2[nH]1 [MMV344625] | -13.3%
8 | COc1ccc(NC(=O)c2cc3ccccn3n2)cc1 [MMV374187] | -18.8%
9 | N=c1n(CCN2CCCCC2)c2ccccc2n1CC(O)COc1ccc(Cl)cc1Cl (centres unmarked) [MMV394033] | -0.8%
10 | Oc1cc(-c2cccc3ccccc23)[nH]n1 [MMV422940] | -11.7%
11 | O=C(O)C(Cc1c[nH]c2ccccc12)N1C(=O)c2ccccc2C1=O (centres unmarked) [MMV452821] | -16.1%
12 | NC(=O)c1ccccc1NC(=O)c1ccc(C(=O)Nc2ccccc2C(N)=O)cc1 [MMV508427] | -9.9%
13 | Oc1c(C(Nc2ccccn2)c2ccccc2)ccc2cccnc12 (centres unmarked) [MMV565773] | -30.1%
14 | O=C(c1cc(O)nc2ccccc12)N1CCN(c2ccccc2)CC1 [MMV596723] | -7.3%
15 | COc1ccc(-n2cnc3cc(NCc4ccco4)ccc32)cc1 [MMV617332] | 22.8%
16 | CN(Cc1ccc(C(C)(C)C)cc1)Cc1cccc2ccccc12.Cl [MMV637104] | -30.4%
17 | O=c1[nH]cnc2c1ncn2[C@H]1CC[C@@H](CO)O1 [MMV637306] | -2.1%
18 | Nc1nc(F)nc2c1ncn2[C@@H]1O[C@H](CO)[C@@H](O)[C@@H]1O [MMV637413] | -6.9%
19 | CCC(C)n1ncn(-c2ccc(N3CCN(c4ccc(OCC5COC(Cn6cncn6)(c6ccc(Cl)cc6Cl)O5)cc4)CC3)cc2)c1=O (centres unmarked) [MMV637528] | -26.8%
20 | CC(=O)N1CCN(c2ccc(OC[C@@H]3CO[C@@](Cn4ccnc4)(c4ccc(Cl)cc4Cl)O3)cc2)CC1 [MMV637533] | -5.2%
21 | CC1CCc2c(N3CCC(O)CC3)c(F)cc3c(=O)c(C(=O)O)cn1c23 (centres unmarked) [MMV637659] | -19.1%
22 | CC(N)C12CC3CC(CC(C3)C1)C2 (centres unmarked) [MMV637855] | 3.7%
23 | CC(C)(C)NC(=O)[C@@H]1C[C@@H]2CCCC[C@@H]2CN1C[C@@H](O)[C@H](Cc1ccccc1)NC(=O)[C@H](CC(N)=O)NC(=O)c1ccc2ccccc2n1 [MMV637879] | 25.0%
24 | CC1(C)[C@H](C(=O)O)N2C(=O)C[C@H]2S1(=O)=O [MMV637945] | -27.5%
25 | C=C(C)[C@@H]1CC[C@]2(C(=O)O)CC[C@]3(C)[C@H](CC[C@@H]4[C@@]5(C)CC[C@H](O)C(C)(C)[C@@H]5CC[C@]43C)[C@@H]12 [MMV638198] | 43.5%

Row | Compound | % of growth inhibition, Mean
26 | COC1CC2CCC(C)C(O)(O2)C(=O)C(=O)N2CCCCC2C(=O)OC(C(C)CC2CCC(OCCO)C(OC)C2)CC(=O)C(C)/C=C(\C)C(O)C(OC)C(=O)C(C)CC(C)/C=C/C=C/C=C/1C (centres unmarked) [MMV639951] | -2.4%
27 | O=C(O)c1ccc(-n2nc(-c3ccccc3O)nc2-c2ccccc2O)cc1 [MMV640014] | -17.8%
28 | Cn1cncc1[C@@](N)(c1ccc(Cl)cc1)c1ccc2c(c1)c(-c1cccc(Cl)c1)cc(=O)n2C [MMV658803] | -24.4%
29 | CC(C)=CCC/C(C)=C\CNCCNC1C2CC3CC(C2)CC1C3 (centres unmarked) [MMV687273] | -3.3%
30 | CCc1nc2ccc(Cl)cn2c1C(=O)NCc1ccc(N2CCC(c3ccc(OC(F)(F)F)cc3)CC2)cc1 [MMV687696] | -33.4%
31 | C[C@H]1COc2c(N3CCN(C)CC3)c(F)cc3c(=O)c(C(=O)O)cn1c23 [MMV687798] | -8.6%
32 | CC(C)N=c1cc2n(-c3ccc(Cl)cc3)c3ccccc3nc-2cc1Nc1ccc(Cl)cc1 [MMV687800] | -1.7%
33 | CC[C@H](CO)NCCN[C@H](CC)CO [MMV687801] | -13.2%
34 | O=[N+]([O-])c1cn2c(n1)OC[C@@H](OCc1ccc(OC(F)(F)F)cc1)C2 [MMV688755] | 1.3%
35 | CC(=O)NC[C@H]1CN(c2ccc(N3CCSCC3)c(F)c2)C(=O)O1 [MMV688756] | -8.2%
36 | CC(=O)Oc1ccccc1C(=O)Nc1ncc([N+](=O)[O-])s1 [MMV688991] | 5.4%
37 | O=C(NCc1ncc(C(F)(F)F)cc1Cl)c1c(Cl)cccc1Cl [MMV689401] | -36.5%
38 | COc1nc2ccc(Br)cc2cc1[C@@H](c1ccccc1)[C@@](O)(CCN(C)C)c1cccc2ccccc12 [MMV689758] | -19.9%
39 | Cc1cc(CCCOc2c(C)cc(-c3noc(C(F)(F)F)n3)cc2C)on1 [MMV690467] | -3.4%
40 | COc1ccccc1CN[C@H]1C2CCN(CC2)[C@H]1C(c1ccccc1)c1ccccc1 [MMV690480] | -1.8%
41 | Nc1nc(=O)c(Br)c(-c2ccccc2)[nH]1 [MMV690540] | -23.8%
42 | CCOCc1nc2c(N)nc3ccccc3c2n1CC(C)(C)O [MMV690547] | -3.7%
43 | FC(F)(F)c1cc(C(F)(F)F)c2ccc3nc(-c4nnco4)cn3c2n1 [MMV690555] | -25.6%
44 | O=C(NC1CCCc2c1[nH]c1ccc(Cl)cc21)c1ccccn1 (centres unmarked) [MMV690621] | -11.4%
45 | COc1cccc(N2CCN(C3=Nc4c(F)cccc4[C@H](CC(=O)O)N3c3cc(C(F)(F)F)ccc3OC)CC2)c1 [MMV690653] | -6.7%
46 | O=C(NO)C1(CS(=O)(=O)c2ccc(Oc3ccc(Cl)cc3)cc2)CCOCC1 [MMV690706] | -11.0%
47 | CN(C)CCNC(=O)c1cccc2cccnc12 [MMV811071] | -21.7%
48 | CCc1ccc(C2CC(C(F)(F)F)n3ncc(C(=O)NCc4ccc(OC)cc4)c3N2)cc1 (centres unmarked) [MMV831201] | -4.6%
49 | Nc1cc(-c2nc3ccccc3[nH]2)n[nH]c1=O [MMV975972] | 0.3%
50 | O=C1C=C(c2ccccc2)S(=O)(=O)c2ccccc21 [MMV1006203] | -8.8%

Row | Compound | % of growth inhibition, Mean
51 | CC(C)Oc1cccc(NC(=O)c2ccccc2C(F)(F)F)c1 [MMV1009286] | -12.9%
52 | O=C(c1ccc(F)cc1)N1CCN2C(=O)c3ccccc3C12c1ccccc1 (centres unmarked) [MMV1165877] | -2.4%
53 | CC(C)(C)c1ccc(Oc2ccc(N)cc2)cc1 [MMV1174026] | -12.8%
54 | CC(C)(C)c1cc(CCC(=O)N2CCC2)cc(C(C)(C)C)c1O [MMV1229204] | -11.2%
55 | O=C(NCc1ccccc1Cl)c1cnc2ccccc2n1 [MMV1230557] | -3.7%
56 | O=C(NCc1ccc2c3c(cccc13)C(=O)N2)c1cccs1 [MMV1341773] | -28.3%
57 | COc1c(F)c(F)cc2c(=O)c(C(=O)O)cn(C3CC3)c12 [MMV1480967] | -20.4%
58 | COc1ccc(NC(=O)CC2Sc3ncnn3C2=O)cc1 (centres unmarked) [MMV1483032] | -13.1%
59 | O=S(=O)(Nc1ccc(-n2cccc2)cc1)c1ccc(Cl)c(Cl)c1 [MMV1505642] | -4.1%
60 | CC1(C)Cc2c(C#N)c(SCCc3ccccc3)nc(N3CCOCC3)c2CO1 [MMV1549626] | -26.0%
61 | CC[C@H](NC(=O)[C@H](C)NC)C(=O)N1C[C@@H](O)C[C@H]1Cc1c(-c2[nH]c3cc(F)ccc3c2C[C@@H]2C[C@H](O)CN2C(=O)[C@H](CC)NC(=O)[C@H](C)NC)[nH]c2cc(F)ccc12 [MMV1557856] | 3.0%
62 | O=C1NC(=O)C(Br)=C1Br [MMV1578554] | -14.5%
63 | O=C(Nc1ccc(F)cc1)c1nn(-c2ccccc2)c(=O)cc1Cl [MMV1578555] | -18.6%
64 | C[C@H]1CC[C@@]2(O)C(C)(C)[C@@H]3CC[C@@]2(C)[C@H]1C3 [MMV1578556] | -4.8%
65 | Cc1c(N)cccc1Cn1ccc(OCCc2cccs2)cc1=O [MMV1578557] | -5.6%
66 | CCc1oc2ccccc2c1C(=O)c1ccc(O)cc1 [MMV1578558] | -39.8%
67 | CO[C@@]1(NC(=O)Cc2cccs2)C(=O)N2C(C(=O)O)=C(COC(N)=O)CS[C@@H]21 [MMV1578559] | -22.5%
68 | NCC(=O)Nc1ccc(-n2nc(C(F)(F)F)cc2-c2ccc3c(ccc4ccccc43)c2)cc1 [MMV1578560] | -14.6%
69 | CCCCCCCc1[nH]c2ccccc2c(=O)c1O [MMV1578561] | -24.4%
70 | O=S(=O)(Nc1ccccc1)c1ccc(NC(=S)Nc2ccccc2)cc1 [MMV1578562] | -19.4%
71 | Fc1ccc2c(/C=C/c3nnn[nH]3)c[nH]c2c1 [MMV1578563] | -0.5%
72 | CCc1cc(O)c(Oc2ccc(C(N)=O)cc2F)cc1F [MMV1578564] | -17.4%
73 | CSC[C@H]1CN(Cc2c[nH]c3c(N)ncnc23)C[C@@H]1O [MMV1578565] | -14.4%
74 | NC[C@H]1OB(O)c2c(OCCCO)cccc21 [MMV1578566] | -20.6%

From publication PMC9959553, “Promising Antifungal Molecules against Mucormycosis Agents Identified from Pandemic Response Box®: In Vitro and In Silico Analyses” (Journal of Fungi, 2023)
